According to patent US20240343694A1, “PYRIMIDINE DERIVATIVE, METHOD FOR PREPARING SAME, AND PHARMACEUTICAL COMPOSITION FOR PREVENTING OR TREATING CANCER COMPRISING SAME AS ACTIVE INGREDIENT” (KOREA RESERARCH INSTITUTE OF CHEMICAL TECHNOLOGY, priority 2021, published 2024):

Columns and labels:
EGFR del19 = EGFR del19 (Homo sapiens (Human), UniProt P00533, DEL746-750); assay: HTRF inhibitory activity against EGFR mutant enzyme (EGFR del19); format: biochemical; conditions: recombinant enzyme, 37° C. for 2 hours
Chain of EGFR del19 (P00533 other isoform, or with tags, fused parts or gaps del 1-668/del 746-750 limits assumed): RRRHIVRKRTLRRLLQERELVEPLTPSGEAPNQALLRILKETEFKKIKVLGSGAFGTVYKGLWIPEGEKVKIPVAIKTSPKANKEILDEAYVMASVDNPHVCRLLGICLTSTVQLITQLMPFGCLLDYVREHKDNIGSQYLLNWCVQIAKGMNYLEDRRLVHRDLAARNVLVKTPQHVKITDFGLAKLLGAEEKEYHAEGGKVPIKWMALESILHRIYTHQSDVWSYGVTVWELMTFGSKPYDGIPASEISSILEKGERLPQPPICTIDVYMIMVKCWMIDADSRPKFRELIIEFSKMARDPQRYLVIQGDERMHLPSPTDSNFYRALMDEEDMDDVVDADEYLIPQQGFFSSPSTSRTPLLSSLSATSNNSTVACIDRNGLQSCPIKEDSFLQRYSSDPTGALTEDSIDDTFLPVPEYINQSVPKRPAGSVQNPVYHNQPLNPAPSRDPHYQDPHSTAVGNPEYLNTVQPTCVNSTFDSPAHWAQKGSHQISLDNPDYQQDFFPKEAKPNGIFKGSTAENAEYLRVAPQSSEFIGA
Procedure, shortened: (§1)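 Recombinant EGFR del19 or A763_Y764insFHEA was premixed with compound in 50 mM Tris pH 7.5 with 7.5 mM MgCl2 and 1 mM DTT. ATP (50 mM as printed) and biotin-peptide (0.5 mM) were added and reacted 2 h at 37 °C. The HTRF 665/615 read used streptavidin-XL665 and Eu anti-phosphotyrosine. IC50 was fitted from 7 concentrations.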

EGFR A763_Y764insFHEA = EGFR A763_Y764insFHEA (Homo sapiens (Human), UniProt P00533, INS763FHEA); assay: HTRF inhibitory activity against EGFR mutant enzyme (EGFR A763_Y764insFHEA); format: biochemical; conditions: recombinant enzyme, 37° C. for 2 hours
Chain of EGFR A763_Y764insFHEA (P00533 other isoform, or with tags, fused parts or gaps del 1-694/ins FHEA behind 763 limits assumed): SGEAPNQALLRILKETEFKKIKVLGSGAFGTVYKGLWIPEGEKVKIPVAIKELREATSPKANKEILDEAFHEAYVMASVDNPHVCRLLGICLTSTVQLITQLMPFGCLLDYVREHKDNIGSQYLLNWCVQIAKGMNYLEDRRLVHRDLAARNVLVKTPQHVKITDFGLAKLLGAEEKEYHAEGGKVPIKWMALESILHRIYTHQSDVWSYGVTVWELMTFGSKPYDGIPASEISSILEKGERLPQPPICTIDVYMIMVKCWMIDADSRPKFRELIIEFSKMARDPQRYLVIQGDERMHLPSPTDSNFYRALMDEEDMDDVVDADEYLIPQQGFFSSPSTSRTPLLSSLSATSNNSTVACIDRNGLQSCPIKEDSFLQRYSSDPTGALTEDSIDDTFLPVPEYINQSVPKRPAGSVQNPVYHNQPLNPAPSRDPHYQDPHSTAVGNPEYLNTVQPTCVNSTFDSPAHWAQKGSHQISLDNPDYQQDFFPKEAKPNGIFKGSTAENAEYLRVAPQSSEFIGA
Procedure, shortened: as §1

HER2 A775_G776insYVMA = HER2 A775_G776insYVMA (Homo sapiens (Human), UniProt P04626, INS775YVMA); assay: HTRF inhibitory activity against HER2 mutant enzyme; format: biochemical; conditions: recombinant enzyme, 37° C. for 2 hours
Chain of HER2 A775_G776insYVMA (P04626 other isoform, or with tags, fused parts or gaps del 1-675/ins YVMA behind 775 limits assumed): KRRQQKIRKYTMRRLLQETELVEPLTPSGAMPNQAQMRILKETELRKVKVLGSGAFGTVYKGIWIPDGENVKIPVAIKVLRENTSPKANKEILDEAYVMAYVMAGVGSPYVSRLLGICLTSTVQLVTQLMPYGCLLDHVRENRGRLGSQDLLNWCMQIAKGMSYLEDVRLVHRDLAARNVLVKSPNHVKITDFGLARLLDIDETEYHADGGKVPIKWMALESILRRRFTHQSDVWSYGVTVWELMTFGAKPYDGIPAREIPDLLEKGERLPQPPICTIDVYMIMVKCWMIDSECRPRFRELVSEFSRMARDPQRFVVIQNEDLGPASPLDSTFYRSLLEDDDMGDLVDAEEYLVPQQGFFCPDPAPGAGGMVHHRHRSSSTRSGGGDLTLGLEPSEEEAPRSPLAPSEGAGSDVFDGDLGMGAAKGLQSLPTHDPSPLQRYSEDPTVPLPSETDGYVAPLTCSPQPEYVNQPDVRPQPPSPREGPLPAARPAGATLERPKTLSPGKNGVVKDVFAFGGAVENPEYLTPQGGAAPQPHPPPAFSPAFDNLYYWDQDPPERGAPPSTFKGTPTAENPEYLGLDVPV
Procedure, shortened: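 Recombinant HER2 A775_G776insYVMA preincubated with compound, then […] and biotinylated peptide ([…]) added; 2 h at 37 °C in Tris-HCl pH 7.5 buffer with MgCl2, DTT. HTRF detection (Eu anti-phosphotyrosine/streptavidin-XL665); IC50 from 7 concentrations.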

[1] = tested on: Ba/F3 EGFR V769_D770insASV; assay: Growth inhibition of Ba/F3 EGFR mutant cells (CellTiter-Glo); format: cell-based; conditions: 72 hours
Method: (§2) The activity of the compounds of the present invention against Ba/F3 EGFR V769_D770insASV and Ba/F3 EGFR D770_N771insSVD mutant cell lines was measured using the CellTiter-Glo system purchased from Promega as follows. CellTiter-Glo assay is a method to measure cell viability by monitoring ATP present in cells. Ba/F3 EGFR V769_D770insASV and Ba/F3 EGFR D770_N771insSVD mutant cell lines were purchased from Crown Biosciences. Ba/F3 EGFR V769_D770insASV and Ba/F3 EGFR D770_N771insSVD mutant cell lines were cultured in RPMI containing 10% FBS and 1% penicillin-streptomycin with 1 μg/mL of puromycin in a 5% CO2 incubator at 37° C.
(§3) The analysis of the ability of the compounds to inhibit the growth of EGFR mutant cells was performed according to the following method. 1,000 cells/100 μL were seeded in a 96-well cell culture plate, and 24 hours thereafter, the compounds represented by Formula 1 were treated with 0 μM, 0.01 μM, 0.03 μM, 0.1 μM, 0.3 μM, 1 μM, 3 μM, and 10 μM. After incubating for 72 hours, the plate treated with the compounds were left at room temperature for 30 minutes, 100 μL of a reagent was further added thereto, and then shaken at room temperature for 10 minutes. Finally, using equipment, the ratio of […] was measured to confirm the cell growth inhibition ability of the compounds. The measured values at 8 compound concentrations were analyzed using the Prism program (version 5.01, Graphpad Software, Inc.), and the IC50 (μM) values, which are measures of the compounds' inhibitory ability, were calculated.

[2] = tested on: Ba/F3 HER2 A775_G776insYVMA; assay: Growth inhibition of Ba/F3 HER2 mutant cells (CellTiter-Glo); format: cell-based; conditions: Mus musculus, BaF3, 72 hours
Method: as §2, with “HER2 A775_G776insYVMA” for “EGFR V769_D770insASV”, “HER2 G776delinsVC” for “EGFR D770_N771insSVD”, “a” for “a 5%”
as §3, with “HER2” for “EGFR”, “reacting” for “incubating”, “was” for “was further”

Ba/F3 HER2 G776delinsVC = assay: as above; format: cell-based; conditions: Mus musculus, BaF3, 72 hours
Method: as §2, with “HER2 A775_G776insYVMA” for “EGFR V769_D770insASV”, “HER2 G776delinsVC” for “EGFR D770_N771insSVD”, “a” for “a 5%”
as §3, with “HER2” for “EGFR”, “reacting” for “incubating”, “was” for “was further”

[3] = tested on: Ba/F3 EGFR D770_N771insSVD; assay: Growth inhibition of Ba/F3 EGFR mutant cells (CellTiter-Glo); format: cell-based; conditions: Ba/F3 EGFR-D770-N771ins_SVD, 72 hours
Method: as §2, §3

C=CC(=O)Nc1cc(Nc2ncc(Cl)c(Nc3ccccc3NS(=O)(=O)CC)n2)c(OC)cc1N(C)CCN(C)C [Example 4, N-(5-((5-chloro-4-((2-(ethylsulfonamido)phenyl)amino)pyrimidin-2-yl)amino)-2-((2-(dimethylamino)ethyl)(methyl)amino)-4-methoxyphenyl)acrylamide]
IC50 (EGFR del19): < 1 nM
IC50 (EGFR A763_Y764insFHEA): 2 nM
IC50 (HER2 A775_G776insYVMA): 37 nM
IC50 [1]: 10 to 30 nM
IC50 [2]: > 100 nM
IC50 (Ba/F3 HER2 G776delinsVC): 10 to 30 nM

C=CC(=O)Nc1cc(Nc2ncc(Cl)c(Nc3ccccc3NS(C)(=O)=O)n2)c(OC)cc1OCCN1CCCC1 [Example 22, N-(5-((5-chloro-4-((2-(methylsulfonamido)phenyl)amino)pyrimidin-2-yl)amino)-4-methoxy-2-(2-(pyrrolidin-1-yl)ethoxy)phenyl)acrylamide]
IC50 (EGFR del19): < 1 nM
IC50 (EGFR A763_Y764insFHEA): 3 nM
IC50 (HER2 A775_G776insYVMA): 22 nM
IC50 [3]: > 100 nM
IC50 [1]: > 100 nM
IC50 [2]: > 100 nM
IC50 (Ba/F3 HER2 G776delinsVC): 10 to 30 nM

C=CC(=O)Nc1cc(Nc2ncc(Cl)c(Nc3ccccc3NS(C)(=O)=O)n2)c(OC)cc1N(C)CCNC(C)C [Example 24, N-(5-((5-chloro-4-((2-(methylsulfonamido)phenyl)amino)pyrimidin-2-yl)amino)-2-((2-(isopropylamino)ethyl)(methyl)amino)-4-methoxyphenyl)acrylamide]
IC50 (EGFR del19): < 1 nM
IC50 (EGFR A763_Y764insFHEA): 3 nM
IC50 (HER2 A775_G776insYVMA): 27 nM
IC50 [3]: > 100 nM
IC50 [1]: > 100 nM
IC50 [2]: > 100 nM
IC50 (Ba/F3 HER2 G776delinsVC): 10 to 30 nM

C=CC(=O)Nc1cc(Nc2ncc(Cl)c(Nc3ccccc3NS(C)(=O)=O)n2)c(OC)cc1N(C)CCNC [Example 25, N-(5-((5-chloro-4-((2-(methylsulfonamido)phenyl)amino)pyrimidin-2-yl)amino)-4-methoxy-2-(methyl(2-(methylamino)ethyl)amino)phenyl)acrylamide]
IC50 (EGFR del19): < 1 nM
IC50 (EGFR A763_Y764insFHEA): < 1 nM
IC50 (HER2 A775_G776insYVMA): 6 nM
IC50 [3]: > 100 nM
IC50 [1]: > 100 nM
IC50 [2]: > 100 nM
IC50 (Ba/F3 HER2 G776delinsVC): > 100 nM

C=CC(=O)Nc1cc(Nc2ncc(Cl)c(Nc3ccccc3N(C)S(C)(=O)=O)n2)c(OC)cc1N(C)CCN(C)C [Example 29, N-(5-((5-chloro-4-((2-(N-methylmethylsulfonamido)phenyl)amino)pyrimidin-2-yl)amino)-2-((2-(dimethylamino)ethyl)(methyl)amino)-4-methoxyphenyl)acrylamide]
IC50 (EGFR del19): < 1 nM
IC50 (EGFR A763_Y764insFHEA): < 1 nM
IC50 (HER2 A775_G776insYVMA): 5 nM
IC50 [3]: 10 to 30 nM
IC50 [1]: 10 to 30 nM
IC50 [2]: 50 to 100 nM
IC50 (Ba/F3 HER2 G776delinsVC): 10 to 30 nM

C=CC(=O)Nc1cc(Nc2ncc(Cl)c(Nc3ccccc3N(C)S(=O)(=O)CC)n2)c(OC)cc1N(C)CCN(C)C [Example 30, N-(5-((5-chloro-4-((2-(N-methylethylsulfonamido)phenyl)amino)pyrimidin-2-yl)amino)-2-((2-(dimethylamino)ethyl)(methyl)amino)-4-methoxyphenyl)acrylamide]
IC50 (EGFR del19): < 1 nM
IC50 (EGFR A763_Y764insFHEA): < 1 nM
IC50 (HER2 A775_G776insYVMA): 4 nM
IC50 [3]: 30 to 50 nM
IC50 [1]: < 10 nM
IC50 [2]: 30 to 50 nM
IC50 (Ba/F3 HER2 G776delinsVC): < 10 nM

C=CC(=O)Nc1cc(Nc2ncc(Cl)c(Nc3ccccc3N(CC)S(C)(=O)=O)n2)c(OC)cc1N(C)CCN(C)C [Example 31, N-(5-((5-chloro-4-((2-(N-ethylmethylsulfonamido)phenyl)amino)pyrimidin-2-yl)amino)-2-((2-(dimethylamino)ethyl)(methyl)amino)-4-methoxyphenyl)acrylamide]
IC50 (EGFR del19): < 1 nM
IC50 (EGFR A763_Y764insFHEA): < 1 nM
IC50 (HER2 A775_G776insYVMA): 0.3 nM
IC50 [3]: 30 to 50 nM
IC50 [1]: < 10 nM
IC50 [2]: < 10 nM
IC50 (Ba/F3 HER2 G776delinsVC): < 10 nM

C=CC(=O)Nc1cc(Nc2ncc(Cl)c(Nc3ccccc3N(C(C)C)S(C)(=O)=O)n2)c(OC)cc1N(C)CCN(C)C [Example 32, N-(5-((5-chloro-4-((2-(N-isopropylmethylsulfonamido)phenyl)amino)pyrimidin-2-yl)amino)-2-((2-(dimethylamino)ethyl)(methyl)amino)-4-methoxyphenyl)acrylamide]
IC50 (EGFR del19): < 1 nM
IC50 (EGFR A763_Y764insFHEA): 1 nM
IC50 (HER2 A775_G776insYVMA): 8 nM
IC50 [3]: 30 to 50 nM
IC50 [1]: 30 to 50 nM
IC50 [2]: 30 to 50 nM
IC50 (Ba/F3 HER2 G776delinsVC): < 10 nM

C=CC(=O)Nc1cc(Nc2ncc(Cl)c(Nc3ccccc3N(CC)S(=O)(=O)CC)n2)c(OC)cc1N(C)CCN(C)C [Example 33, N-(5-((5-chloro-4-((2-(N-ethylethylsulfonamido)phenyl)amino)pyrimidin-2-yl)amino)-2-((2-(dimethylamino)ethyl)(methyl)amino)-4-methoxyphenyl)acrylamide]
IC50 (EGFR del19): < 1 nM
IC50 (EGFR A763_Y764insFHEA): < 1 nM
IC50 (HER2 A775_G776insYVMA): 7 nM
IC50 [3]: 30 to 50 nM
IC50 [1]: < 10 nM
IC50 [2]: 30 to 50 nM
IC50 (Ba/F3 HER2 G776delinsVC): < 10 nM

C=CC(=O)Nc1cc(Nc2ncc(Cl)c(Nc3cccc(Cl)c3N(C)S(C)(=O)=O)n2)c(OC)cc1N(C)CCN(C)C [Example 35, N-(5-((5-chloro-4-((3-chloro-2-(N-methylmethylsulfonamido)phenyl)amino)pyrimidin-2-yl)amino)-2-((2-(dimethylamino)ethyl)(methyl)amino)-4-methoxyphenyl)acrylamide]
IC50 (EGFR del19): < 1 nM
IC50 (EGFR A763_Y764insFHEA): 3 nM
IC50 (HER2 A775_G776insYVMA): 27 nM
IC50 [3]: 30 to 50 nM
IC50 [1]: 30 to 50 nM
IC50 [2]: 50 to 100 nM
IC50 (Ba/F3 HER2 G776delinsVC): < 10 nM

C=CC(=O)Nc1cc(Nc2ncc(Cl)c(Nc3cccc(C)c3NS(C)(=O)=O)n2)c(OC)cc1N(C)CCN(C)C [Example 36, N-(5-((5-chloro-4-((3-methyl-2-(methylsulfonamido)phenyl)amino)pyrimidin-2-yl)amino)-2-((2-(dimethylamino)ethyl)(methyl)amino)-4-methoxyphenyl)acrylamide]
IC50 (EGFR del19): < 1 nM
IC50 (EGFR A763_Y764insFHEA): 1 nM
IC50 (HER2 A775_G776insYVMA): 10 nM
IC50 [3]: 10 to 30 nM
IC50 [1]: 10 to 30 nM
IC50 [2]: 50 to 100 nM
IC50 (Ba/F3 HER2 G776delinsVC): 10 to 30 nM

C=C(F)C(=O)Nc1cc(Nc2ncc(Cl)c(Nc3cccc4c3N(S(C)(=O)=O)CC4)n2)c(OC)cc1N(C)CCN(C)C [Example 66, N-(5-((5-chloro-4-((1-(methylsulfonyl)indolin-7-yl)amino)pyrimidin-2-yl)amino)-2-((2-(dimethylamino)ethyl)(methyl)amino)-4-methoxyphenyl)-2-fluoroacrylamide]
IC50 (EGFR del19): < 1 nM
IC50 (EGFR A763_Y764insFHEA): < 1 nM
IC50 (HER2 A775_G776insYVMA): 5 nM
IC50 [3]: 10 to 30 nM
IC50 [1]: 10 to 30 nM
IC50 [2]: 10 to 30 nM

C=CC(=O)Nc1cc(Nc2ncc(F)c(Nc3cccc4c3N(C(C)=O)CC4)n2)c(OC)cc1N(C)CCN(C)C [Example 101, N-(5-((4-((1-acetylindolin-7-yl)amino)-5-fluoropyrimidin-2-yl)amino)-2-((2-(dimethylamino)ethyl)(methyl)amino)-4-methoxyphenyl)acrylamide]
IC50 (EGFR del19): 1 nM
IC50 (EGFR A763_Y764insFHEA): 5 nM
IC50 [3]: 30 to 50 nM
IC50 [1]: 10 to 30 nM
IC50 [2]: 50 to 100 nM
IC50 (Ba/F3 HER2 G776delinsVC): < 10 nM
